Patent US7901893B2, “NPC1L1 (NPC3) and methods of identifying ligands thereof” (Merck Sharp & Dohme Corp., priority 2004, dated 2011)

Columns and labels:
mouse NPC1L1 = molecular target: T1, mouse NPC1L1 (Mus musculus, UniProt Q6T3U4); assay: Effect of ezetimibe on cholesterol uptake, mouse NPC1L1 transfected CHO cells; assay type: cell-based; settings: EZ (10 μM), mNPC1L1(C7)
T1 construct: expressed in transfected cells; pCDNA3)
Protocol: The effect of ezetimibe on the ability of CHO cells stably transfected with mouse or rat NPC1L1 or mouse SR-B1 to take up ^3H-labeled cholesterol was evaluated in pulse-chase experiments. One cDNA clone of mouse NPC1L1 (C7) and three clones of rat NPC1L1 (C7, C17 and C21) were evaluated. The ability of CHO cells stably transfected with mouse SR-B1, mouse NPC1L1 and rat NPC1L1 to take up labeled cholesterol, in the absence of ezetimibe, was also evaluated in the pulse-chase experiments. Data generated in these experiments are set forth, below, in Tables 4 and 5. Additionally, the quantity of total cholesterol taken up by transfected and untransfected CHO cells in the presence of four different unlabeled cholesterol concentrations was also evaluated.
Starve. The maintenance media (F12 HAMS, 1% Pen/Strep, 10% FCS) was removed and the cells were rinsed with serum-free HAMS media. The serum-free media was then replaced with 1 mL “starve” media (F12 HAMS, Pen/Strep, 5% lipoprotein deficient serum (LPDS). The cells were then starved overnight.
Pre-Incubation/pre-dose. Media was removed from all plates and replaced with fresh starve media and preincubated for 30 minutes. Half of the wells received media containing ezetimibe (stock soln in EtOH; final conc.=10 μM).
^3H-Cholesterol Pulse. The following was added directly to each well: • 0.5 μCi ^3H-cholesterol (˜1.1×10^6 dpm/well) in 50 μl of a mixed bile salt micelle • 4.8 mM sodium taurocholate (2.581 mg/mL) • 0.6 mM sodium oleate (0.183 mg/mL) • 0.25 mM cholesterol (0.1 mg/mL) • Dispersed in “starve” media by ultrasonic vibration • Final media cholesterol concentration=5 μg/mL
Labeled cholesterol pulse time points were 4, 12, 24 minutes and 4 hours. Triplicate wells were prepared for each treatment.
Wash. At designated times, media was aspirated and cells were washed once with Hobbs Buffer A (50 mM Tris, 0.9% NaCl, 0.2% bovine serum albumin (BSA), pH 7.4) and once with Hobbs Buffer B (50 mM Tris, 0.9% NaCl, pH 7.4 (no BSA)) at 37° C.
A. 4, 12, 24 minute time points: Cells were digested overnight with 0.2N NaOH, 2 mL/well, room temperature. One 1.5 mL aliquot was removed from each well, neutralized & counted for radioactivity by scintillation counting.
B. 4 hour time point: The digested cells were analyzed by thin-layer chromatography to determine the content of cholesterol ester in the cells.
Extracts were spotted onto TLC plates and run for 30 minutes in 2 ml hexane:isopropanol (3:2) mobile phase for 30 minutes, followed by a second run in 1 ml hexane:isopropanol (3:2) mobile phase for 15 minutes.
C. Protein determination of cell extracts. Plates containing a sample of the cell extracts were placed on orbital shaker at 120 rpm for indicated times and then extracts are pooled into 12×75 tubes. Plates were dried and NaOH (2 ml/well) added. The protein content of the samples were then determined. Two additional 50 μl aliquots from all wells were assayed for total protein by the Pierce micro BCA method. The quantity of labeled cholesterol observed in the cells was normalized to the quantity of protein in the cells.

[1] = system: intestinal cholesterol absorption; assay: Cholesterol absorption in mice, dual fecal isotope ratio method; assay type: in vivo, mouse
Protocol: Cholesterol absorption in the mice was determined by the dual fecal isotope ratio method as described by Altmann et al. (Biochim. Biophys. Acta. 1580(1): 77-93 (2002)). Mice (n—4-6/group) were fed a standard rodent chow diet and in some groups treated daily with a maximally effective dose of ezetimibe (10 mg/kg). Mice were gavaged with ^14C-cholesterol (1 μCi, 0.1 mg unlabeled cholesterol) and ^3H-sitostanol (2 μCi) in 0.1 ml corn oil. Feces were collected for 2 days and fecal ^14C-cholesterol and ^3H-sitostanol levels were determined by combustion in a Packard Oxidizer. The fraction of cholesterol absorbed, as evaluated by the fecal dual isotope technique, was similar in wild type (+/+) and heterozygous mice (+/−) fed a chow diet (heterozygous mice absorbed 46±5% and age matched wild type mice absorbed 51±3% of the dose of ^14C-cholesterol). The NPC1L1 knockout mice (−/−) absorbed 15.6±0.4% of the ^14C-cholesterol, which was similar to the wild type mice treated with a maximally effective dose of ezetimibe (16.1±0.3%), and reduced by 69% compared to wild type mice (p<0.001). In NPC1L1 knockout treated with ezetimibe at 10 mg/kg/day, cholesterol absorption was similar to that seen in the untreated knockout mice (16.2±0.6% compared to 15.6%±0.4%, respectively). […]

**Q.** Which “Cholesteryl Ester, dpm ± sem” value (mouse NPC1L1; 4 Hour Pulse) does the source give for `O=C1[C@H](CC[C@H](O)c2ccc(F)cc2)[C@@H](c2ccc(O)cc2)N1c1ccc(F)cc1` [ezetimibe] here?
**A.** 453 ± 118 dpm

**Q.** What about the “Cholesteryl Ester, dpm/mg protein ± sem” value (mouse NPC1L1; 4 Hour Pulse) of the same compound?
**A.** 3057 ± 776 dpm/mg protein

**Q.** What about the “Free Cholesterol, dpm ± sem” value (mouse NPC1L1; 4 Hour Pulse) of the same compound?
**A.** 77516 ± 1910 dpm

**Q.** And the “Free Cholesterol, dpm/mg protein ± sem” value (mouse NPC1L1; 4 Hour Pulse)?
**A.** 523803 ± 10386 dpm/mg protein

**Q.** What about the “Total Cholesterol, dpm ± sem” value (mouse NPC1L1; 4 Min Pulse) of the same compound?
**A.** 4569 ± 222 dpm

**Q.** What about the “Total Cholesterol, dpm/mg protein ± sem” value (mouse NPC1L1; 4 Min Pulse) of the same compound?
**A.** 30916 ± 1137 dpm/mg protein

**Q.** And the “Total Cholesterol, dpm ± sem” value (mouse NPC1L1; 12 Min Pulse)?
**A.** 6120 ± 755 dpm

**Q.** And the “Total Cholesterol, dpm/mg protein ± sem” value (mouse NPC1L1; 12 Min Pulse)?
**A.** 41712 ± 4054 dpm/mg protein

**Q.** What about the “Total Cholesterol, dpm ± sem” value (mouse NPC1L1; 24 Min Pulse) of the same compound?
**A.** 9749 ± 482 dpm

**Q.** What about the “Total Cholesterol, dpm/mg protein ± sem” value (mouse NPC1L1; 24 Min Pulse) of the same compound?
**A.** 74041 ± 3670 dpm/mg protein

**Q.** And the “fraction of ^14C-cholesterol absorbed” value ([1]; NPC1L1 knockout mice, ezetimibe 10 mg/kg/day)?
**A.** 16.2±0.6%

**Q.** And the “fraction of ^14C-cholesterol absorbed” value ([1]; wild type mice, ezetimibe 10 mg/kg daily)?
**A.** 16.1±0.3%
